The term IC50 denotes the concentration needed to halve the response being measured.

Here are results for one compound from BindingDB's records for doi:10.1016/j.ejmech.2018.08.073 (Indian Csir-Central Drug Research Institute, 2018).

The assay deals with T1, Histone deacetylase 6 (Homo sapiens, UniProt Q9UBN7).
T1 sequence (Q9UBN7 whole entry): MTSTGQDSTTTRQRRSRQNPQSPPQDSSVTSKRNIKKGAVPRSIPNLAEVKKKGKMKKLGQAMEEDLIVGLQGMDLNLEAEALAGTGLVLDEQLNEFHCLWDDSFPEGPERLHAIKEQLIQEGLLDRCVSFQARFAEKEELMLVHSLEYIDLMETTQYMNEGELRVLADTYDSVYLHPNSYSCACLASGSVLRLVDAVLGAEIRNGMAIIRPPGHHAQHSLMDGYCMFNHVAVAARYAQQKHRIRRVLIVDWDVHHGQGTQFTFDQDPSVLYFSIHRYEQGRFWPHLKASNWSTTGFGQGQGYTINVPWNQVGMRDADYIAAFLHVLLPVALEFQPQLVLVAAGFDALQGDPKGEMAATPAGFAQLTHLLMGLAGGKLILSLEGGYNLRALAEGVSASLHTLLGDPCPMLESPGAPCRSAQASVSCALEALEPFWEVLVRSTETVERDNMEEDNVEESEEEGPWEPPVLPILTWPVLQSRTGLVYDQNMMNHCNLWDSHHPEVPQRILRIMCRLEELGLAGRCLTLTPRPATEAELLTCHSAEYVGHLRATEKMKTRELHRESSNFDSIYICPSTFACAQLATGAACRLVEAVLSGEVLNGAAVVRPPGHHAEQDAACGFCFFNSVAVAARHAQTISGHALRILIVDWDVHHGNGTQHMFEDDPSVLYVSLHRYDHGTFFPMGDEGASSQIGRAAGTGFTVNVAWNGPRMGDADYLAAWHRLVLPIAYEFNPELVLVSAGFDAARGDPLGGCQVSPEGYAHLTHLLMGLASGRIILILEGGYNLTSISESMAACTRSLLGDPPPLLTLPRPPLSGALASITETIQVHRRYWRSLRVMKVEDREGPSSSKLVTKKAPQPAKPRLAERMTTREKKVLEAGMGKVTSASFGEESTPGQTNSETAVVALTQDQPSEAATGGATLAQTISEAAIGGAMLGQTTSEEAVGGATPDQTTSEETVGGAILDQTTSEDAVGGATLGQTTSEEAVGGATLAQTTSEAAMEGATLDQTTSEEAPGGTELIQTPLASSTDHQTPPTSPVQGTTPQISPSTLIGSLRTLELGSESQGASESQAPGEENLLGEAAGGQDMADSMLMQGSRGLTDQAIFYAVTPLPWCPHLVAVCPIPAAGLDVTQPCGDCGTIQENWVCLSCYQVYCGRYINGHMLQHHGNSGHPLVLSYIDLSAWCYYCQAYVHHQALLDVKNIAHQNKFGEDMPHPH
Description: Inhibition of recombinant full-length human N-terminal GST-tagged HDAC6 expressed in baculovirus infected Sf9 insect cells using fluorescent-labelled Arg-His-Lys-Lys(Ac) as substrate measured after 2 hrs by fluorescence assay.

Structures are written as SMILES.

For the compound `Cc1c(CN)c2ccccc2n1-c1ccc(C(=O)NO)cc1`, the IC50 amounted to 1.5 nM.
